From ChEMBL document CHEMBL4043157, “Benzothiazole analogues: Synthesis, characterization, MO calculations with PM6 and DFT, in silico studies and in vitro antimalarial as DHFR inhibitors and antimicrobial activities” (Bioorg Med Chem, 2017)
≈ marks a conversion by molar mass, not a printed value. Calls of active or inactive are those of the source. No cut-off for these calls is given here.

Assays:
[1] = tested on: Schizosaccharomyces pombe; assay: Genotoxicity in Schizosaccharomyces pombe assessed as induction of DNA damage by measuring appearance of DNA smear DNA band at 2 to 10 ug/ml by agarose gel electrophoresis
[2] = tested on: Pseudomonas aeruginosa; assay: Antimicrobial activity against Pseudomonas aeruginosa MTCC 1688; assay type: functional
[3] = tested on: Plasmodium falciparum; assay: Antimalarial activity against Plasmodium falciparum; assay type: functional
[4] = Cytotoxicity in Schizosaccharomyces pombe assessed as cell viability at 6 ug/ml (reference value: 94.67 +/- 1.53%); conditions: Schizosaccharomyces pombe cells, read-out: Activity
[5] = tested on: Aspergillus clavatus; conditions: MTCC 1323
[6] = tested on: Escherichia coli; assay: Antimicrobial activity against Escherichia coli MTCC 443; assay type: functional
[7] = tested on: Candida albicans; assay: Antimicrobial activity against Candida albicans MTCC 227; assay type: functional
[8] = Cytotoxicity in Schizosaccharomyces pombe assessed as cell viability at 4 ug/ml (reference value: 94.67 +/- 1.53%); conditions: Schizosaccharomyces pombe cells, read-out: Activity
[9] = tested on: Streptococcus pyogenes; assay: Antimicrobial activity against Streptococcus pyogenes MTCC 442; assay type: functional
[10] = Cytotoxicity in Schizosaccharomyces pombe assessed as cell viability at 10 ug/ml (reference value: 94.67 +/- 1.53%); conditions: Schizosaccharomyces pombe cells, read-out: Activity
[11] = tested on: Staphylococcus aureus; assay: Antimicrobial activity against Staphylococcus aureus MTCC 96; assay type: functional
[12] = Cytotoxicity in Schizosaccharomyces pombe assessed as cell viability at 2 ug/ml (reference value: 94.67 +/- 1.53%); conditions: Schizosaccharomyces pombe cells, read-out: Activity
[13] = Cytotoxicity in Schizosaccharomyces pombe assessed as cell viability at 8 ug/ml (reference value: 94.67 +/- 1.53%); conditions: Schizosaccharomyces pombe cells, read-out: Activity
[14] = tested on: Aspergillus clavatus; assay: Antimicrobial activity against Aspergillus clavatus MTCC 1323; assay type: functional
[15] = target: T1, Dihydrofolate reductase (Bos taurus, UniProt P00376); assay: Inhibition of bovine liver DHFR
T1 sequence (P00376 whole entry): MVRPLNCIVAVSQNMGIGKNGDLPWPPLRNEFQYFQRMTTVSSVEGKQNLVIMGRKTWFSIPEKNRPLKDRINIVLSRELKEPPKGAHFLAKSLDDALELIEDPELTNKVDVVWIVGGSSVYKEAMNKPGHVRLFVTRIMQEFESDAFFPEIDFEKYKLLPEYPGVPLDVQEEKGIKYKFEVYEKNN

C(=N\c1nc2ccccc2s1)/c1ccco1
Activity [1]: Toxic
MIC [2]: 877 µM (≈ 200 µg/mL)
IC50 [3]: 1860 nM
viability at 6 ug/ml [4]: 64%
MIC [5]: inactive
MIC [6]: 548 µM (≈ 125 µg/mL)
MIC [7]: 4380 µM (≈ 1000 µg/mL)
viability at 4 ug/ml [8]: 73%
MIC [9]: 439 µM (≈ 100 µg/mL)
viability at 10 ug/ml [10]: 61.7%
MIC [11]: 877 µM (≈ 200 µg/mL)
viability at 2 ug/ml [12]: 78.7%
viability at 8 ug/ml [13]: 62.3%

Clc1ccc(/C=N/c2nc3ccccc3s2)cc1Cl
Activity [1]: Toxic
MIC [2]: 409 µM (≈ 126 µg/mL)
IC50 [3]: 980 nM
viability at 6 ug/ml [4]: 81%
MIC [6]: 409 µM (≈ 126 µg/mL)
MIC [7]: inactive
viability at 4 ug/ml [8]: 84.3%
MIC [9]: 327 µM (≈ 100 µg/mL)
viability at 10 ug/ml [10]: 73.3%
MIC [11]: 409 µM (≈ 126 µg/mL)
viability at 2 ug/ml [12]: 89%
viability at 8 ug/ml [13]: 77%
MIC [14]: 1630 µM (≈ 502 µg/mL)

Brc1ccc(/C=N/c2nc3ccccc3s2)cc1
Activity [1]: Toxic
MIC [2]: 396 µM (≈ 126 µg/mL)
IC50 [3]: 288 nM
viability at 6 ug/ml [4]: 72.3%
MIC [5]: inactive
MIC [6]: 198 µM (≈ 62.8 µg/mL)
MIC [7]: inactive
viability at 4 ug/ml [8]: 73.3%
MIC [9]: 633 µM (≈ 201 µg/mL)
viability at 10 ug/ml [10]: 66.3%
MIC [11]: 791 µM (≈ 251 µg/mL)
viability at 2 ug/ml [12]: 77.3%
IC50 [15]: 45.5 nM
viability at 8 ug/ml [13]: 68.3%

Clc1ccc(/C=N/c2nc3ccccc3s2)cc1
Activity [1]: Toxic
MIC [2]: 460 µM (≈ 125 µg/mL)
IC50 [3]: 353 nM
viability at 6 ug/ml [4]: 82.7%
MIC [6]: 735 µM (≈ 200 µg/mL)
MIC [7]: 3680 µM (≈ 1000 µg/mL)
viability at 4 ug/ml [8]: 87%
MIC [9]: 368 µM (≈ 100 µg/mL)
viability at 10 ug/ml [10]: 75.3%
MIC [11]: 460 µM (≈ 125 µg/mL)
viability at 2 ug/ml [12]: 89.3%
IC50 [15]: 41.5 nM
viability at 8 ug/ml [13]: 78%
MIC [14]: 1840 µM (≈ 501 µg/mL)

O=C(N[C@H](CO)[C@H](O)c1ccc([N+](=O)[O-])cc1)C(Cl)Cl [CHLORAMPHENICOL]
MIC [2]: 155 µM (≈ 50.1 µg/mL)
MIC [6]: 155 µM (≈ 50.1 µg/mL)
MIC [9]: 155 µM (≈ 50.1 µg/mL)
MIC [11]: 155 µM (≈ 50.1 µg/mL)

C(=N\c1nc2ccccc2s1)/c1ccc[nH]1
Activity [1]: Toxic
MIC [2]: 1100 µM (≈ 250 µg/mL)
IC50 [3]: 1910 nM
viability at 6 ug/ml [4]: 74.3%
MIC [6]: 881 µM (≈ 200 µg/mL)
MIC [7]: 2200 µM (≈ 500 µg/mL)
viability at 4 ug/ml [8]: 82.3%
MIC [9]: 440 µM (≈ 100 µg/mL)
viability at 10 ug/ml [10]: 69.7%
MIC [11]: 551 µM (≈ 125 µg/mL)
viability at 2 ug/ml [12]: 87%
viability at 8 ug/ml [13]: 71.7%
MIC [14]: 4400 µM (≈ 1000 µg/mL)

O=[N+]([O-])c1ccccc1/C=N/c1nc2ccccc2s1
Activity [1]: Toxic
MIC [2]: 707 µM (≈ 200 µg/mL)
IC50 [3]: 396 nM
viability at 6 ug/ml [4]: 79.7%
MIC [5]: inactive
MIC [6]: 442 µM (≈ 125 µg/mL)
MIC [7]: 3530 µM (≈ 1000 µg/mL)
viability at 4 ug/ml [8]: 82%
MIC [9]: 221 µM (≈ 62.6 µg/mL)
viability at 10 ug/ml [10]: 72.3%
MIC [11]: 353 µM (≈ 100 µg/mL)
viability at 2 ug/ml [12]: 84.3%
IC50 [15]: 53.1 nM
viability at 8 ug/ml [13]: 77%

CCc1nc(N)nc(N)c1-c1ccc(Cl)cc1 [PYRIMETHAMINE]
IC50 [3]: 1000 nM

Oc1ccc(/C=N/c2nc3ccccc3s2)cc1
Activity [1]: Toxic
MIC [2]: 394 µM (≈ 100 µg/mL)
IC50 [3]: 386 nM
viability at 6 ug/ml [4]: 69.3%
MIC [5]: inactive
MIC [6]: 394 µM (≈ 100 µg/mL)
MIC [7]: inactive
viability at 4 ug/ml [8]: 75%
MIC [9]: 1970 µM (≈ 500 µg/mL)
viability at 10 ug/ml [10]: 65.3%
MIC [11]: 984 µM (≈ 250 µg/mL)
viability at 2 ug/ml [12]: 87%
IC50 [15]: 51.2 nM
viability at 8 ug/ml [13]: 68.3%

Fc1ccc(/C=N/c2nc3ccccc3s2)cc1
Activity [1]: Toxic
MIC [2]: 976 µM (≈ 250 µg/mL)
IC50 [3]: 1480 nM
viability at 6 ug/ml [4]: 73%
MIC [6]: 781 µM (≈ 200 µg/mL)
MIC [7]: 1950 µM (≈ 501 µg/mL)
viability at 4 ug/ml [8]: 81.7%
MIC [9]: 391 µM (≈ 100 µg/mL)
viability at 10 ug/ml [10]: 71.7%
MIC [11]: 244 µM (≈ 62.5 µg/mL)
viability at 2 ug/ml [12]: 86.3%
viability at 8 ug/ml [13]: 72.3%
MIC [14]: 1950 µM (≈ 501 µg/mL)

NYSTATIN
MIC [5]: 108 µM
MIC [7]: 108 µM

O=C(O)c1cn(C2CC2)c2cc(N3CCNCC3)c(F)cc2c1=O [CIPROFLOXACIN]
MIC [2]: 75 µM (≈ 24.9 µg/mL)
MIC [6]: 75 µM (≈ 24.9 µg/mL)
MIC [9]: 151 µM (≈ 50 µg/mL)
MIC [11]: 151 µM (≈ 50 µg/mL)

CCn1cc(C(=O)O)c(=O)c2cc(F)c(N3CCNCC3)cc21 [NORFLOXACIN]
MIC [2]: 31 µM (≈ 9.9 µg/mL)
MIC [6]: 31 µM (≈ 9.9 µg/mL)
MIC [9]: 31 µM (≈ 9.9 µg/mL)
MIC [11]: 31 µM (≈ 9.9 µg/mL)

O=[N+]([O-])c1cccc(/C=N/c2nc3ccccc3s2)c1
Activity [1]: Toxic
MIC [2]: 221 µM (≈ 62.6 µg/mL)
IC50 [3]: 201 nM
viability at 6 ug/ml [4]: 79.3%
MIC [6]: 883 µM (≈ 250 µg/mL)
MIC [7]: 1770 µM (≈ 501 µg/mL)
viability at 4 ug/ml [8]: 84%
MIC [9]: 883 µM (≈ 250 µg/mL)
viability at 10 ug/ml [10]: 70.3%
MIC [11]: 707 µM (≈ 200 µg/mL)
viability at 2 ug/ml [12]: 88.7%
IC50 [15]: 31.2 nM
viability at 8 ug/ml [13]: 74.7%
MIC [14]: 883 µM (≈ 250 µg/mL)

C(=N\c1nc2ccccc2s1)/c1cccs1
Activity [1]: Toxic
MIC [2]: 410 µM (≈ 100 µg/mL)
IC50 [3]: 1020 nM
viability at 6 ug/ml [4]: 80.7%
MIC [5]: inactive
MIC [6]: 256 µM (≈ 62.6 µg/mL)
MIC [7]: 4100 µM (≈ 1000 µg/mL)
viability at 4 ug/ml [8]: 81.7%
MIC [9]: 410 µM (≈ 100 µg/mL)
viability at 10 ug/ml [10]: 67%
MIC [11]: 410 µM (≈ 100 µg/mL)
viability at 2 ug/ml [12]: 86%
viability at 8 ug/ml [13]: 73%

CC1(C)S[C@@H]2[C@H](NC(=O)[C@H](N)c3ccccc3)C(=O)N2[C@H]1C(=O)O [AMPICILLIN]
MIC [2]: 286 µM (≈ 99.9 µg/mL)
MIC [6]: 286 µM (≈ 99.9 µg/mL)
MIC [9]: 286 µM (≈ 99.9 µg/mL)
MIC [11]: 716 µM (≈ 250 µg/mL)

COC1=CC(=O)C[C@@H](C)[C@]12Oc1c(Cl)c(OC)cc(OC)c1C2=O [GRISEOFULVIN]
MIC [7]: 1420 µM (≈ 501 µg/mL)
MIC [14]: 284 µM (≈ 100 µg/mL)
